According to patent US20140088032A1, “TREATMENT OF MASTITIS” (priority 2011, published 2014):
Converted amounts (≈) assume the structure as drawn. “And” between values parts separate entries of the source, which are not always exact repeats. Identical values can stand only once. “Also recorded” adds a separate entry of the source. Counter-ions that a name gives are not always drawn. Like-named read-outs stand apart in the source and are kept apart here.

What was measured:
[1] = test system: Staphylococcus aureus strain Newbould 305 (ATCC 29740); assay: Example 1: experimental S. aureus mastitis in lactating cows, intramammary treatment; type: in vivo, Prim'Holstein lactating cows
Description: A Staphylococcus aureus strain Newbould 305 (ATCC 29740) stock suspension (about 10^11 CFU/ml) was kept frozen at −80° C. in peptone physiological water with 10% of glycerol. On day 0, the stock solution was thawed and diluted in peptone physiological water to a concentration of ca 1000 cfu/ml.
On Day 0 8 Prim'Holstein lactating cows, animals of between 2-5 years old and at least 2 months in lactation, were intramammarily inoculated into two homolateral quarters with 1 ml of S. aureus suspension per quarter (ca. 1000 cfu/quarter) into the teat cistern with sterile 2-ml syringes. Teat ends were disinfected with towels soaked in a disinfectant solution before infusion.
On day 6 after the challenge 4 cows (8 quarters) were treated with 75 mg cefquinome—one injector after each of 3 consecutive milkings—Group A. The 4 other cows infected were treated with 75 mg cefquinome as well, but 10 μg of re-LPS were infused just before each cefquinome infusion—Group B.
The standard assay for measuring mastitis in the dairy industry is to count the number of cells (originating from the cow) in the milk. This estimate is termed the somatic cell count (SCC). Specifically, the SCC reflects the levels of cells, including immune cells, such as leukocytes that are released from the lining and tissues of the udder of the infected animal, into the udder cavity. The number of somatic cells in a given volume of milk (typically 1 ml) provides a semi-quantitative estimate of the degree of mastitis, because unaffected animals typically have low SCC levels.
Milk samples were investigated for S. aureus presence and SCC levels at several time points during the study (days 2, 6, 9, 13, 16, 20, 23 post challenge for S. aureus bacteriology).
Clinical cure was assessed 16 days after treatment end (i.e. 23 days after the challenge), and was defined as having at least the two last consecutive milk samples with SCC <250000 cells/ml.

[2] = relative to native LPS; cited from earlier work
TLR4 = conditions: relative to native LPS; cited from earlier work
[3] = test system: Staphylococcus aureus strain Newbould 305 (ATCC 29740); assay: Example 2: experimental S. aureus mastitis in lactating cows, intramammary treatment; type: in vivo, Prim'Holstein lactating cows; conditions: after Re-LPS infusion with neomycin/penicillin
Description: A Staphylococcus aureus strain Newbould 305 (ATCC 29740) stock suspension (about 10^9 CFU/ml) was kept frozen at −80° C. in peptone physiological water with 10% of glycerol. On day 0, the stock solution was thawed and diluted in peptone physiological water to a concentration of ca 200 cfu/ml.
On Day 0, 12 Prim'Holstein lactating cows, animals of between 2-8 years old and at least 1 month in lactation, were inoculated by intramammary route into two homo-lateral quarters, with 5 ml of S. aureus suspension per quarter (ca. 1000 cfu/quarter), using 5-ml syringes. Teat ends were disinfected with towels soaked in a disinfectant solution before infusion. […]
The standard assay for measuring mastitis in the dairy industry is to count the number of cells (originating from the cow) in the milk. […] The number of somatic cells in a given volume of milk (typically 1 ml) provides a semi-quantitative estimate of the degree of mastitis, because unaffected animals typically have low SCC levels. […]
Bacteriological cure was assessed 16 days after treatment end (i.e. 24 days after the challenge) and was defined as having at least the two last consecutive milk samples found negative for S. aureus (<5 cfu/ml).
Clinical cure was assessed 16 days after treatment end (i.e. 24 days after the challenge), and was defined as having at least the two last consecutive milk samples with SCC <250000 cells/ml.

[4] = test system: S. aureus strain Newbould 305; assay: MIC against the S. aureus challenge strain; type: cell-based, Staphylococcus aureus; conditions: S. aureus Newbould 305 strain used for the challenge

## CCCCCCCCCCCCCC(=O)O[C@H](CCCCCCCCCCC)CC(=O)OC1C(NC(=O)C[C@@H](CCCCCCCCCCC)OC(=O)CCCCCCCCCCC)[C@H](OCC2O[C@H](OP(=O)(O)O)C(NC(=O)C[C@H](O)CCCCCCCCCCC)C(OC(=O)C[C@H](O)CCCCCCCCCCC)[C@@H]2O)OC(CO[C@]2(C(=O)O)CC(O[C@]3(C(=O)O)CC(O)[C@@H](O)C([C@H](O)CO)O3)[C@@H](O)C([C@H](O)CO)O2)[C@H]1OP(=O)(O)O.N.N.N.N (stereo partly drawn) [Re-LPS, Kdo2-lipid A]
[1]; after Re-LPS infusion with cefquinome, Example 1
  SCC levels induced by treatment: above 1.10^6 cells per ml
[2]
  Endotoxin activity: equal to that of native LPS; also recorded: comparable to that of native LPS
TLR4
  Ability to activate TLR4: comparable to that of native LPS
[3]
  SCC levels induced by treatment: above 1.10^6 cells per ml

## CC1(C)S[C@@H]2[C@H](NC(=O)Cc3ccccc3)C(=O)N2[C@H]1C(=O)O [benzyl penicillin]
[4]; Staphylococcus aureus, read-out: MIC
  MIC: 0.064 µg/mL (≈ 0.191 µM)

## CO/N=C(\C(=O)N[C@@H]1C(=O)N2C(C(=O)[O-])=C(C[n+]3cccc4c3CCCC4)CS[C@H]12)c1csc(N)n1 [cefquinome, I1-[[(6R,7R)-7-[[(2Z)-(2-amino-4-thiazolyl)-(methoxyimino)acetyl]amino]-2-carboxy-8-oxo-5-thia-1-azabicyclo[4.2.0-oct-2-en-3-yl]methyl]-5,6,7,8-tetrahydroquinoliniuminner salt]
[1]; day 23
  Quarters cure rate, bacteriological + clinical: 37.5% (3/8)
[1]; day 23, two last samples SCC <250000 cells/ml
  Quarters cure rate, clinical: 37.5% (3/8)
[1]; individual quarter, assessed at day 23 (16 days after treatment end)
  Cure: no (4×) and yes (4×)
[1]; individual quarter, day 9 relative to infection (day 0), treatment at day 6
  Quarter milk SCC at day 9: 628 ×10^3 cell/ml and 310 ×10^3 cell/ml and 521 ×10^3 cell/ml and 533 ×10^3 cell/ml and 763 ×10^3 cell/ml and 334 ×10^3 cell/ml and 795 ×10^3 cell/ml and 249 ×10^3 cell/ml
[1]; individual quarter, day 13 relative to infection, treatment at day 6
  Quarter milk SCC at day 13: 384 ×10^3 cell/ml and 828 ×10^3 cell/ml and 1533 ×10^3 cell/ml and 414 ×10^3 cell/ml and 250 ×10^3 cell/ml and 177 ×10^3 cell/ml and 112 ×10^3 cell/ml and 134 ×10^3 cell/ml
[1]; individual quarter, day 16 relative to infection, treatment at day 6
  Quarter milk SCC at day 16: 2032 ×10^3 cell/ml and 921 ×10^3 cell/ml and 254 ×10^3 cell/ml and 317 ×10^3 cell/ml and 74 ×10^3 cell/ml and 125 ×10^3 cell/ml and 785 ×10^3 cell/ml and 95 ×10^3 cell/ml
[1]; individual quarter, day 20 relative to infection, treatment at day 6
  Quarter milk SCC at day 20: 2008 ×10^3 cell/ml and 717 ×10^3 cell/ml and 281 ×10^3 cell/ml and 589 ×10^3 cell/ml and 137 ×10^3 cell/ml and 177 ×10^3 cell/ml and 1686 ×10^3 cell/ml and 77 ×10^3 cell/ml
[1]; individual quarter, day 23 relative to infection, treatment at day 6
  Quarter milk SCC at day 23: 1382 ×10^3 cell/ml and 739 ×10^3 cell/ml and 536 ×10^3 cell/ml and 186 ×10^3 cell/ml and 98 ×10^3 cell/ml and 109 ×10^3 cell/ml and 2482 ×10^3 cell/ml and 47 ×10^3 cell/ml
[4]
  MIC: 0.25 µg/mL

## neomycin
[4]
  MIC: 2 µg/mL
